Measurements published in patent publication US20250051762A1, “PLATFORM USING DNA-ENCODED SMALL MOLECULE LIBRARIES AND RNA SELECTION TO DESIGN SMALL MOLECULES THAT TARGET RNA” (University of Florida Research Foundation, Incorporated, priority 2021, published 2025).

What was measured:
3×3 ILL = assay: 2DCS selection of microarray-immobilized compounds with 32P-labeled 3×3 ILL, Hit-StARTS analysis of RNA-seq; type: binding; conditions: Zobs >4
Experimental: The interaction landscape for the ten representative DEL compounds emerging from the FACS screen were then defined by 2DCS (22). In 2DCS, small molecules are site-specifically conjugated to a microarray surface and then probed for binding to an RNA library under highly stringent conditions (FIGS. 2-B & S6). That is, the array is co-incubated with a radioactively labeled RNA library and an excess of competitor oligonucleotides that mimic regions common to all library members. […] To enable site-specific immobilization of compounds 1-10, a C-terminal alkyne handle was installed for CuAAC click (30) coupling to azide-displaying array surfaces. Installation of the alkyne was accomplished by coupling of bromoacetic acid onto rink amide resin followed by nucleophilic displacement with propargylamine prior to the synthesis of the SPDEL compounds (FIG. 2A).
All ten compounds bound to the 3×3 ILL under the highly stringent conditions described above, almost all dose-dependently (FIG. 2B). The RNAs bound to each small molecule were harvested, reverse transcribed into DNA, and sequenced by RNA-seq. The resulting data set was statistically analyzed by using High Throughput Structure-Activity Relationships Through Sequencing (Hit-StARTS) (31) in which the relative frequency of each selected RNA is compared to the frequency of that RNA in the starting library (pooled population comparison). (31) The statistical significance of the enrichment of selected RNAs is quantified by Zobs, which correlates with affinity and selectivity. (31) Here, a cut-off of Zobs >4 was employed, which was empirically determined from measured affinities via evaluation of compound 9 binding with potential RNA motifs extracted from the 2DCS (FIGS. 2-B, 13, & 14). […] This cut-off afforded, on average, 60±40 (range: 6-155) preferred, or privileged, RNA 3D folds for each compound. Compound 6 bound to largest number of RNA targets (n=155) while compound 9 bound the fewest (n=6) (FIG. 14). […]

[1] = tested on: fully paired RNA (loop mutated to a base pair); assay: Binding affinity by MST, Cy5-labeled fully paired RNA
Experimental: Binding affinity measurements: Binding affinities were measured by microscale thermophoresis (MST), performed on a Monolith NT.115 system (NanoTemper Technologies) with Cy5-labeled RNAs. These RNAs include: the 5′GAG/3′CCC SEQ ID NO: 16 loop at pri-miR-27a's Drosha site (Sequence:/5′-Cy5/rCrUrGrArGrGrUrGrArArArCrArUrCrCrCrArG SEQ ID NO: 17; Dharmacon), a related internal loop not selected by 9. 5′CAG/3′GCC SEQ ID NO: 17 loop (Sequence:/5′-Cy5/rCrUrCrArGrGrUrGrArArArCrArUrCrCrGrArG SEQ ID NO: 16; Dharmacon), and an RNA in which the loop is mutated to a base pair (Sequence:/5-Cy5/rCrUrGrArGrGrUrGrArArArCrArUrCrUrCrArG SEQ ID NO: 16; Dharmacon).
Briefly, Cy5-labeled RNA (10 nM) was prepared in 1× Binding Buffer and folded by heating at 60° C. for 5 min and then slowly cooling to room temperature. After cooling, Tween-20 was added to a final concentration of 0.1% (v/v). Compound solutions were prepared separately in 20 μL of 1× Binding Buffer at a final concentration of 5 μM (1% (v/v) DMSO), followed by 1:1 serial dilutions in 1× Binding Buffer. RNA and compound solutions were then mixed 1:1 by volume to a total of 20 μL.
Samples were incubated for 20 min at room temperature and then loaded into premium capillaries (NanoTemper Tech, Cat #MO-K025). The following parameters were used for MST measurements: 5-20% LED power (adjusted to keep fluorescence intensity between 2000 and 8000), 80% MST power, Laser-On time=30 s, Laser-Off time=25 s. The resulting data were analyzed by calculating the change in thermophoresis as a function of compound concentration and fitted by Equation 1, a one site binding model, in NanoTemper Tech's MST analysis software to yield the dissociation constant (Kd):
Where F is the concentration of fluorescently labeled RNA; unbound and bound refer to the thermophoresis signal at completely unbound and bound state of RNA, respectively; c is the concentration of the compound; f (c) is the thermophoresis signal at compound concentration of c; and Kd is the dissociation constant.

With C#CCN(CC(N)=O)C(=O)C[C@H](Cc1c[nH]c2ccccc12)NC(=O)[C@@H]1C[C@H](NC(=O)Cn2c(=O)[nH]c3ccccc3c2=O)CN1 [Compound 9] the “number of RNA motifs bound that are unique to the compound” value (3×3 ILL) was 2 and the saturable binding [1] was “Saturable binding was not observed”.
